Test results: ChEMBL document CHEMBL3885881, “DrugMatrix”

Organism: Rattus norvegicus
Assay: DrugMatrix - Regimen: Daily Repeat
Format: toxicity, organism-based, Sprague-Dawley
Parameters: regimen Daily Repeat, gender Male, age 6-8 weeks
Settings: in vivo, ip, 0 mg/kg, route intraperitoneal, dose level Control, […]; for ABSOLUTE BASOPHIL / ABSOLUTE EOSINOPHIL / ABSOLUTE LYMPHOCYTE / ABSOLUTE MONOCYTE / ABSOLUTE SEGMENTED NEUTROPHIL / BASOPHIL / EOSINOPHIL / ERYTHROCYTE COUNT / HEMATOCRIT / HEMOGLOBIN / LEUKOCYTE COUNT / LYMPHOCYTE / MEAN CORPUSCULAR HEMOGLOBIN / MEAN CORPUSCULAR HEMOGLOBIN CONCENTRATION / MEAN CORPUSCULAR VOLUME / MONOCYTE / NEUTROPHIL / NUCLEATED RED BLOOD CELLS / PLATELET COUNT: tissue Blood; for ALANINE AMINOTRANSFERASE / ALBUMIN / ALKALINE PHOSPHATASE / ASPARTATE AMINOTRANSFERASE / BLOOD UREA NITROGEN / CARBON DIOXIDE / CHLORIDE / CHOLESTEROL / CREATININE / GLUCOSE / LACTATE DEHYDROGENASE / LIPASE / PHOSPHORUS / POTASSIUM / SODIUM / TOTAL BILIRUBIN / TOTAL PROTEIN / URIC ACID: tissue Plasma

`ClC(Cl)=C(Cl)C(Cl)=C(Cl)Cl` [HEXACHLOROBUTADIENE] was tested, and the “ABSOLUTE BASOPHIL” value (72 h, time 3 day) was 0 CELLS/uL, the “ABSOLUTE EOSINOPHIL” value (72 h, time 3 day) was 135.5 CELLS/uL and the “ABSOLUTE LYMPHOCYTE” value (72 h, time 3 day) was 9030.67 CELLS/uL. For the same compound, the “ABSOLUTE MONOCYTE” value (72 h, time 3 day) was 286.5 CELLS/uL, the “ABSOLUTE SEGMENTED NEUTROPHIL” value (72 h, time 3 day) was 1330.67 CELLS/uL and the BASOPHIL (72 h, time 3 day) was 0%. For the same compound, the EOSINOPHIL (72 h, time 3 day) was 1.17%, the “ERYTHROCYTE COUNT” value (72 h, time 3 day) was 5.54 x10E6/uL and the HEMATOCRIT (72 h, time 3 day) was 35.2%. The HEMOGLOBIN (72 h, time 3 day) was 12.65 G/DL, the “LEUKOCYTE COUNT” value (72 h, time 3 day) was 10.78 x10E3/uL and the LYMPHOCYTE (72 h, time 3 day) was 83.83%. For the same compound, the “MEAN CORPUSCULAR HEMOGLOBIN” value (72 h, time 3 day) was 22.87 pg, the “MEAN CORPUSCULAR HEMOGLOBIN CONCENTRATION” value (72 h, time 3 day) was 35.98 G/DL and the “MEAN CORPUSCULAR VOLUME” value (72 h, time 3 day) was 63.7 fL. For the same compound, the MONOCYTE (72 h, time 3 day) was 2.5%, the NEUTROPHIL (72 h, time 3 day) was 12.5% and the “NUCLEATED RED BLOOD CELLS” value (72 h, time 3 day) was 0 /100WBC. The “PLATELET COUNT” value (72 h, time 3 day) was 853.5 x10E3/uL, the “ALANINE AMINOTRANSFERASE” value (72 h, time 3 day) was 45.83 u/L and the ALBUMIN (72 h, time 3 day) was 4.22 G/DL. For the same compound, the “ALKALINE PHOSPHATASE” value (72 h, time 3 day) was 344.5 u/L, the “ASPARTATE AMINOTRANSFERASE” value (72 h, time 3 day) was 85.33 u/L and the “BLOOD UREA NITROGEN” value (72 h, time 3 day) was 16.17 mg/dL. For the same compound, the “CARBON DIOXIDE” value (72 h, time 3 day) was 33.33 mmol/L, the CHLORIDE (72 h, time 3 day) was 101.33 MEQ/L and the CHOLESTEROL (72 h, time 3 day) was 73.33 mg/dL. For the same compound, the CREATININE (72 h, time 3 day) was 0.19 mg/dL, the GLUCOSE (72 h, time 3 day) was 157.67 mg/dL and the “LACTATE DEHYDROGENASE” value (72 h, time 3 day) was 160.33 u/L. It also gave an LIPASE (72 h, time 3 day) of 9.83 u/L, a PHOSPHORUS (72 h, time 3 day) of 11.4 mg/dL and a POTASSIUM (72 h, time 3 day) of 6.1 MEQ/L. For the same compound, the SODIUM (72 h, time 3 day) was 146.25 MEQ/L, the “TOTAL BILIRUBIN” value (72 h, time 3 day) was 0.17 mg/dL and the “TOTAL PROTEIN” value (72 h, time 3 day) was 6.3 G/DL. For the same compound, the “URIC ACID” value (72 h, time 3 day) was 1.28 mg/dL, the “ABSOLUTE BASOPHIL” value (120 h, time 5 day) was 0 CELLS/uL and the “ABSOLUTE EOSINOPHIL” value (120 h, time 5 day) was 134 CELLS/uL. For the same compound, the “ABSOLUTE LYMPHOCYTE” value (120 h, time 5 day) was 9272.17 CELLS/uL, the “ABSOLUTE MONOCYTE” value (120 h, time 5 day) was 286 CELLS/uL and the “ABSOLUTE SEGMENTED NEUTROPHIL” value (120 h, time 5 day) was 1357.83 CELLS/uL. The BASOPHIL (120 h, time 5 day) was 0%, the EOSINOPHIL (120 h, time 5 day) was 1.17% and the “ERYTHROCYTE COUNT” value (120 h, time 5 day) was 5.83 x10E6/uL. The HEMATOCRIT (120 h, time 5 day) was 36.17%, the HEMOGLOBIN (120 h, time 5 day) was 13.1 G/DL and the “LEUKOCYTE COUNT” value (120 h, time 5 day) was 11.05 x10E3/uL. The LYMPHOCYTE (120 h, time 5 day) was 83.83%, the “MEAN CORPUSCULAR HEMOGLOBIN” value (120 h, time 5 day) was 22.5 pg and the “MEAN CORPUSCULAR HEMOGLOBIN CONCENTRATION” value (120 h, time 5 day) was 36.25 G/DL. For the same compound, the “MEAN CORPUSCULAR VOLUME” value (120 h, time 5 day) was 62 fL, the MONOCYTE (120 h, time 5 day) was 2.67% and the NEUTROPHIL (120 h, time 5 day) was 12.33%. The “NUCLEATED RED BLOOD CELLS” value (120 h, time 5 day) was 0 /100WBC, the “PLATELET COUNT” value (120 h, time 5 day) was 806.67 x10E3/uL and the “ALANINE AMINOTRANSFERASE” value (120 h, time 5 day) was 50.83 u/L. The ALBUMIN (120 h, time 5 day) was 4.13 G/DL, the “ALKALINE PHOSPHATASE” value (120 h, time 5 day) was 358.17 u/L and the “ASPARTATE AMINOTRANSFERASE” value (120 h, time 5 day) was 148.83 u/L. For the same compound, the “BLOOD UREA NITROGEN” value (120 h, time 5 day) was 13.83 mg/dL, the “CARBON DIOXIDE” value (120 h, time 5 day) was 35.83 mmol/L and the CHLORIDE (120 h, time 5 day) was 99.33 MEQ/L. The CHOLESTEROL (120 h, time 5 day) was 80.5 mg/dL, the CREATININE (120 h, time 5 day) was 0.19 mg/dL and the GLUCOSE (120 h, time 5 day) was 156.33 mg/dL. The “LACTATE DEHYDROGENASE” value (120 h, time 5 day) was 238.17 u/L, the LIPASE (120 h, time 5 day) was 9.17 u/L and the PHOSPHORUS (120 h, time 5 day) was 12.53 mg/dL. The POTASSIUM (120 h, time 5 day) was 6.34 MEQ/L, the SODIUM (120 h, time 5 day) was 145.15 MEQ/L and the “TOTAL BILIRUBIN” value (120 h, time 5 day) was 0.18 mg/dL. For the same compound, the “TOTAL PROTEIN” value (120 h, time 5 day) was 6.07 G/DL, the “URIC ACID” value (120 h, time 5 day) was 1.3 mg/dL and the “ABSOLUTE BASOPHIL” value (time 14 day) was 0 CELLS/uL. For the same compound, the “ABSOLUTE EOSINOPHIL” value (time 14 day) was 56.5 CELLS/uL, the “ABSOLUTE LYMPHOCYTE” value (time 14 day) was 12701 CELLS/uL and the “ABSOLUTE MONOCYTE” value (time 14 day) was 330.33 CELLS/uL. The “ABSOLUTE SEGMENTED NEUTROPHIL” value (time 14 day) was 2428.83 CELLS/uL, the BASOPHIL (time 14 day) was 0% and the EOSINOPHIL (time 14 day) was 0.33%. For the same compound, the “ERYTHROCYTE COUNT” value (time 14 day) was 6.18 x10E6/uL, the HEMATOCRIT (time 14 day) was 36.42% and the HEMOGLOBIN (time 14 day) was 13.22 G/DL. For the same compound, the “LEUKOCYTE COUNT” value (time 14 day) was 15.52 x10E3/uL, the LYMPHOCYTE (time 14 day) was 82.5% and the “MEAN CORPUSCULAR HEMOGLOBIN” value (time 14 day) was 21.38 pg. For the same compound, the “MEAN CORPUSCULAR HEMOGLOBIN CONCENTRATION” value (time 14 day) was 36.32 G/DL, the “MEAN CORPUSCULAR VOLUME” value (time 14 day) was 58.92 fL and the MONOCYTE (time 14 day) was 2.17%. For the same compound, the NEUTROPHIL (time 14 day) was 15%, the “NUCLEATED RED BLOOD CELLS” value (time 14 day) was 0 /100WBC and the “PLATELET COUNT” value (time 14 day) was 999 x10E3/uL. For the same compound, the “ALANINE AMINOTRANSFERASE” value (time 14 day) was 39.17 u/L, the ALBUMIN (time 14 day) was 4.05 G/DL and the “ALKALINE PHOSPHATASE” value (time 14 day) was 275.17 u/L. For the same compound, the “ASPARTATE AMINOTRANSFERASE” value (time 14 day) was 84.5 u/L, the “BLOOD UREA NITROGEN” value (time 14 day) was 12 mg/dL and the “CARBON DIOXIDE” value (time 14 day) was 29.5 mmol/L. The CHLORIDE (time 14 day) was 101 MEQ/L, the CHOLESTEROL (time 14 day) was 73.83 mg/dL and the CREATININE (time 14 day) was 0.19 mg/dL. The GLUCOSE (time 14 day) was 146.5 mg/dL, the “LACTATE DEHYDROGENASE” value (time 14 day) was 285.67 u/L and the LIPASE (time 14 day) was 9 u/L. It also gave a PHOSPHORUS (time 14 day) of 11.67 mg/dL, a POTASSIUM (time 14 day) of 6.82 MEQ/L and an SODIUM (time 14 day) of 143.57 MEQ/L. The “TOTAL BILIRUBIN” value (time 14 day) was 0.13 mg/dL, the “TOTAL PROTEIN” value (time 14 day) was 6.23 G/DL and the “URIC ACID” value (time 14 day) was 1.75 mg/dL.
